Assay [1] deals with cIAP-1 BIR-3 (Homo sapiens, UniProt Q13490). Briefly: Fluorescence polarization binding affinity to cIAP-1 BIR-3 (competition with AbuRPF-K(5-Fam)-NH2). The settings on record: 5 nM labeled peptide, 40 nM BIR3, 15 min at RT, pH 7.5; reported as ranges; read-out: KD (c-IAP-1 BIR3). The method, then: (§1) The binding affinities of the compounds are reported as a KD value (μM). Briefly, various concentrations of test peptides were mixed with 5 nM of the fluorescently labeled peptide (i.e., a mutated N-terminal Smac peptide—AbuRPF-K(5-Fam)-NH2) and 40 nM of the respective IAP BIR3 for 15 min at RT in […] of 0.1M Potassium Phosphate buffer, pH 7.5 containing […] bovine g-globulin. Following incubation, the polarization values (mP) were measured on a Victor2V (available from PerkinElmer Life Sciences) using a 485 nm excitation filter and a 520 nm emission filter. The reported KD values are supplied as ranges (A=<0.1 μM, B=0.1 μM to 1 μM, C>1 μM to 10 μM, D=>10 μM).

Assay [2] concerns the target T1, XIAP BIR-3 (Homo sapiens, UniProt P98170).
T1 construct: 40 nM of the respective IAP BIR3
Description: Fluorescence polarization binding affinity to XIAP BIR-3 (competition with AbuRPF-K(5-Fam)-NH2). The settings on record: 5 nM labeled peptide, 40 nM BIR3, 15 min at RT, pH 7.5; reported as ranges. As to the method:
as §1

Assay [3] has as its system SK-OV-3 cells. Description: Growth inhibition of ovarian cancer cell line SK-OV-3 (MTT assay, cell survival). The class given is cell-based. The settings on record: Homo sapiens, drug concentration that results in 50% cell survival, 72 hrs incubation, reported as ranges. The method, then: Compounds of the invention also were tested for their ability to inhibit the growth of an ovarian cancer cell line, SK-OV-3. A known assay previously used for measuring cell growth (as described in Hansen, M. B., Nielsen, S. E., and Berg, K. (1989) J. Immunol. Methods 119, 203-210 and incorporated herein by reference in its entirety) was used. Briefly, SK-OV-3 cells are seeded in 96-well plates in McCoy's medium containing 10% fetal bovine serum albumin (5,000 per well) and incubated overnight at 37° C. The next day, test compounds are added at various concentrations (0.003-10 μM) and the plates are incubated at 37° C. for an additional 72 hrs. This incubation time was considered to be optimal for measuring inhibitory effects of the different compounds tested. 50 microliters of 5 mg/mL MTT reagent is added to each well and the plates are incubated at 37° C. for another three (3) hours. At the end of the three (3) hour incubation period, 50 microliters of DMSO is added to each well to dissolve cells and the optical density (OD) of the wells is measured with a microplate reader (Victor^2 1420, Wallac, Finland) at 535 nm. Cell survival (CS) was calculated using the following equation: CS=(OD treated well/mean OD control wells)×100%.
The CC50 (reported in the following tables), is defined as the drug concentration that results in 50% cell survival (CS), and is derived by calculating the point where the dose-response curve crosses the 50% CS point using GraphPad Prism. The reported CC50 values are supplied as ranges (A=<0.1 μM, B=0.1 μM to 1 μM, C=>1 μM to 10 μM, D=>10 μM).
For orientation: Tetrazolium dyes change colour on reduction, which living cells bring about.

Where only a bound is given, the exact number is not on record here.

T1 sequence (P98170 241-356 limits assumed): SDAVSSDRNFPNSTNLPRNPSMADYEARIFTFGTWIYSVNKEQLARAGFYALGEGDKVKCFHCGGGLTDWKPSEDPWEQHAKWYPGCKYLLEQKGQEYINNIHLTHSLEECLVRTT
Chain of cIAP-1 BIR-3 (Q13490 266-352 limits assumed): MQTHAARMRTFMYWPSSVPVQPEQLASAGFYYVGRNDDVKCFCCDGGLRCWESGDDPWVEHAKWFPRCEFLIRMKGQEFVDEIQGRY

As for `CN[C@@H](C)C(=O)N[C@H](C(=O)N1CC[C@@H]2[C@H]1[C@@H](c1c[nH]c3cc(F)ccc13)CN2C(C)=O)[C@@H](C)OC` [Example 66, N-{1-[4-Acetyl-6-(6-fluoro-1H-indol-3-yl)-hexahydro-pyrrolo[3,2-b]pyrrole-1-carbonyl]-2-methoxy-propyl}-2-methylamino-propionamide], the dissociation constant (Kd) in assay [1] and in assay [2] was below 100 nM each time. The compound further had a CC50 in assay [3] below 100 nM.

For `CN[C@@H](C)C(=O)N[C@H](C(=O)N1CC[C@@H]2[C@H]1[C@H](c1c[nH]c3cc(F)ccc13)CN2C1CCCC1)C(C)C` [Example 7, N-{1-[4-Cyclopentyl-6-(6-fluoro-1H-indol-3-yl)-hexahydro-pyrrolo[3,2-b]pyrrole-1-carbonyl]-2-methyl-propyl}-2-methylamino-propionamide], the Kd in assay [1] fell in the range of 100 to 1000 nM; in assay [2] it was 1000 to 10000 nM. Also, the CC50 in assay [3] was 1000 to 10000 nM.

As to `CN[C@@H](C)C(=O)N[C@H](C(=O)N1CC[C@H]2NC[C@H](c3c[nH]c4ccccc34)[C@H]21)C1CCCCC1` [Example 2, N-{1S-Cyclohexyl-2-[(3aR,6aR)-6S-(1H-indol-3-yl)-hexahydro-pyrrolo[3,2-b]pyrrol-1-yl]-2-oxo-ethyl}-2S-methylamino-propionamide], the Kd in assay [1] and in assay [2] was below 100 nM each time. In addition, the CC50 in assay [3] was 100 to 1000 nM.

For `CN[C@@H](C)C(=O)N[C@H](C(=O)N1CC[C@@H]2[C@H]1[C@@H](c1c[nH]c3cc(F)ccc13)CN2C)C1CCCCC1` [Example 17, N-{1-Cyclohexyl-2-[6-(6-fluoro-1H-indol-3-yl)-4-methyl-hexahydro-pyrrolo[3,2-b]pyrrol-1-yl]-2-oxo-ethyl}-2-methylamino-propionamide], the values for the Kd in assay [1] and in assay [2] were below 100 nM and 100 to 1000 nM, respectively. Also, the CC50 in assay [3] is 100 to 1000 nM.

As for `CN[C@@H](C)C(=O)N[C@H](C(=O)N1CC[C@@H]2[C@H]1[C@@H](c1c[nH]c3cc(F)ccc13)CN2S(C)(=O)=O)C(C)O` (stereo partly drawn) [Example 56], the dissociation constant (Kd) in assay [1] and in assay [2] was below 100 nM throughout. The compound also displayed a CC50 in assay [3] below 100 nM.

As to `CN[C@@H](C)C(=O)N[C@H](C(=O)N1CC[C@@H]2[C@H]1[C@@H](c1c[nH]c3cc(F)ccc13)CN2Cc1ccccc1)[C@@H](C)O` [Example 101], the Kd in assay [1] was below 100 nM; in assay [2], 100 to 1000 nM. In assay [3], the CC50 was in the range of 100 to 1000 nM.

For `CN[C@@H](C)C(=O)N[C@@H](CO)C(=O)N1CC[C@@H]2[C@H]1[C@H](c1c[nH]c3cc(F)ccc13)CN2S(C)(=O)=O` [Example 51, N-{2-[6-(6-Fluoro-1H-indol-3-yl)-4-methanesulfonyl-hexahydro-pyrrolo[3,2-b]pyrrol-1-yl]-1-hydroxymethyl-2-oxo-ethyl}-2-methylamino-propionamide], the figures for the Kd in assay [1] and in assay [2] were 1000 to 10000 nM and above 10000 nM, respectively. Moreover, the CC50 in assay [3] is above 10000 nM.

For the compound `CN[C@@H](C)C(=O)N[C@H](C(=O)N1CC[C@@H]2[C@H]1[C@@H](c1c[nH]c3cc(F)ccc13)CN2Cc1ccccc1)C(C)C` [Example 105], the values for the Kd in assay [1] and in assay [2] were below 100 nM and 100 to 1000 nM, respectively. Besides, in assay [3], the CC50 was below 100 nM.

Regarding `CNC(C)C(=O)NC(C(=O)N1CC(c2c[nH]c3cc(F)ccc23)C2C1CCN2C(=O)C(NC(=O)C(C)NC)C1CCCCC1)C1CCCCC1` (stereo not drawn) [Example 111, N-{1-Cyclohexyl-2-[4-[2-cyclohexyl-2-(2-methylamino-propionylamino)-acetyl]-6-(6-fluoro-1H-indol-3-yl)-hexahydro-pyrrolo[3,2-b]pyrrol-1-yl]-2-oxo-ethyl}-2-methylamino-propionamide], the Kd in assay [1] and in assay [2] was below 100 nM throughout. Also, in assay [3], the CC50 was below 100 nM.

As to `CC[C@H](NC(=O)[C@H](C)NC)C(=O)N1CC[C@@H]2[C@H]1[C@@H](c1c[nH]c3cc(F)ccc13)CN2S(C)(=O)=O` [Example 46, N-{1-[6-(6-Fluoro-1H-indol-3-yl)-4-methanesulfonyl-hexahydro-pyrrolo[3,2-b]pyrrole-1-carbonyl]-propyl}-2-methylamino-propionamide], the Kd in assay [1] and in assay [2] was below 100 nM throughout. Besides, the CC50 in assay [3] was below 100 nM.

Consider `CN[C@@H](C)C(=O)N[C@H](C(=O)N1CC[C@@H]2[C@H]1[C@@H](c1c[nH]c3cc(F)ccc13)CN2Cc1ccccc1)[C@@H](C)OC` [Example 100], for which the Kd in assay [1] and in assay [2] was below 100 nM in each case. Besides, in assay [3], the CC50 was below 100 nM.

Consider `CN[C@@H](C)C(=O)N[C@H](C(=O)N1CC[C@H]2NC[C@H](c3c[nH]c4cc(F)ccc34)[C@H]21)C(C)C` [Example 30, N-{1-[6-(6-Fluoro-1H-indol-3-yl)-hexahydro-pyrrolo[3,2-b]pyrrole-1-carbonyl]-2-methyl-propyl}-2-methylamino-propionamide], for which the equilibrium dissociation constant (Kd) in assay [1] and in assay [2] was below 100 nM each time. In assay [3], this compound registered a half-maximal cytotoxic concentration (CC50) below 100 nM.

For `CN[C@@H](C)C(=O)N[C@H](C(=O)N1CC[C@@H]2[C@H]1CCN2C(=O)OCc1ccccc1)C1CCCCC1` [Example 108, 4-[2-Cyclohexyl-2-(2-methylamino-propionylamino)-acetyl]hexahydro-pyrrolo[3,2-b]pyrrole-1-carboxylic acid benzyl ester], the Kd was below 100 nM in assay [1] and 1000 to 10000 nM in assay [2]. This compound also came in with a CC50 in assay [3] of 100 to 1000 nM.

In the case of `CN[C@@H](C)C(=O)N[C@@H](COC)C(=O)N1CC[C@H]2NC[C@H](c3c[nH]c4cc(F)ccc34)[C@H]21` [Example 34, N-{2-[6-(6-Fluoro-1H-indol-3-yl)-hexahydro-pyrrolo[3,2-b]pyrrol-1-yl]-1-methoxymethyl-2-oxo-ethyl}-2-methylamino-propionamide], the Kd in assay [1] and in assay [2] was below 100 nM in each case. In assay [3], this compound gave a CC50 of 1000 to 10000 nM.

Take `CN[C@@H](C)C(=O)N[C@@H](COC)C(=O)N1CC[C@@H]2[C@H]1[C@@H](c1c[nH]c3cc(F)ccc13)CN2c1ncccn1` [Example 81, N-{2-[6-(6-Fluoro-1H-indol-3-yl)-4-pyrimidin-2-yl-hexahydro-pyrrolo[3,2-b]pyrrol-1-yl]-1-methoxymethyl-2-oxo-ethyl}-2-methylamino-propionamide]: the Kd in assay [1] and in assay [2] was below 100 nM in each case. This compound also came in with a CC50 in assay [3] below 100 nM.

Consider `CN[C@@H](C)C(=O)N[C@H](C(=O)N1C[C@@H](O)[C@H]2NC[C@@H](c3c[nH]c4cc(F)ccc34)[C@H]21)C1CCCCC1` [Example 86, N-{1-Cyclohexyl-2-[6R-(6-fluoro-1H-indol-3-yl)-3-hydroxy-hexahydro-pyrrolo[3,2-b]pyrrol-1-yl]-2-oxo-ethyl}-2-methylamino-propionamide], for which the Kd in assay [1] was 100 to 1000 nM; in assay [2], above 10000 nM. The compound further returned a CC50 in assay [3] above 10000 nM.

`CN[C@@H](C)C(=O)N[C@H](C(=O)N1CC[C@@H]2[C@H]1[C@H](c1c[nH]c3cc(F)ccc13)CN2S(C)(=O)=O)C(C)C` [Example 47, N-{1-[6-(6-Fluoro-1H-indol-3-yl)-4-methanesulfonyl-hexahydro-pyrrolo[3,2-b]pyrrole-1-carbonyl]-2-methyl-propyl}-2-methylamino-propionamide]: the Kd in assay [1] and in assay [2] was 100 to 1000 nM each time. The CC50 in assay [3] was above 10000 nM.

On to `CNC(C)C(=O)NC(C(=O)N1CCC2C1CCN2C(=O)C(NC(=O)C(C)NC)C1CCCCC1)C1CCCCC1` (stereo not drawn) [Example 110, N-(1-Cyclohexyl-2-{4-[2-cyclohexyl-2-(2-methylamino-propionylamino)-acetyl]-hexahydro-pyrrolo[3,2-b]pyrrol-1-yl}-2-oxo-ethyl)-2-methylamino-propionamide], for which the Kd was below 100 nM in assay [1] and 1000 to 10000 nM in assay [2]. Besides, in assay [3], the 50% cytotoxic concentration (CC50) was 1000 to 10000 nM.

On to `CN[C@@H](C)C(=O)N[C@H](C(=O)N1CC[C@H]2NC[C@H](c3c[nH]c4cc(F)ccc34)[C@H]21)[C@@H](C)OC` [Example 35, N-{1-[6-(6-Fluoro-1H-indol-3-yl)-hexahydro-pyrrolo[3,2-b]pyrrole-1-carbonyl]-2-methoxy-propyl}-2-methylamino-propionamide], for which the Kd in assay [1] and in assay [2] was below 100 nM each time. In assay [3], the CC50 was below 100 nM.

What is called Kd is the equilibrium constant for the complex coming apart. The term CC50 denotes the concentration that lowers cell viability or growth by half. Higher therefore signals lower toxicity to the cells.

These data come from patent publication US8399683B2 (TetraLogic Pharmaceuticals, priority 2008, dated 2013).
